From ChEMBL document CHEMBL1145622, “2-Aminomethyl piperidines as novel urotensin-II receptor antagonists” (Bioorg Med Chem Lett, 2008) come the findings set out here.

Series [1] concerns the target T1, Urotensin-2 receptor (Homo sapiens, UniProt Q9UKP6).
T1 sequence (Q9UKP6 whole entry): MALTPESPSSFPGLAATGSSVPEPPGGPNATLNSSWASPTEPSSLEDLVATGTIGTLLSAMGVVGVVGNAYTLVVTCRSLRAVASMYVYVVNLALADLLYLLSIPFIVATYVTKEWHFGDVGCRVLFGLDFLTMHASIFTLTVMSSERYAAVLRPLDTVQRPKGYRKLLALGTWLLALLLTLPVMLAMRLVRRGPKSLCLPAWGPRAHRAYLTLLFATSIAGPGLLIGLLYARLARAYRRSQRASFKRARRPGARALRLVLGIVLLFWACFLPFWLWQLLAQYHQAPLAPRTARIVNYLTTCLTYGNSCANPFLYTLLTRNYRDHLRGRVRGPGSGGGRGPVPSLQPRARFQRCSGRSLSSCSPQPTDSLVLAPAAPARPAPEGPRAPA
As to the kind of experiment: Displacement of [125I]human urotensin 2 from human recombinant urotensin 2 receptor expressed in HEK293 cells. In kind it is cell-based.

The target in series [2] is T1, Urotensin-2 receptor. Description: Inhibition of human recombinant urotensin 2 receptor-mediated calcium mobilization expressed in HEK293 cells by FLIPR assay. Type of series: functional, cell-based.
A short description of series [3]: Displacement of [125I]human urotensin 2 from cat urotensin 2 receptor. Set-up: species or system Felis catus.
Series [4] has as its target T2, Urotensin-2 receptor (Rattus norvegicus, UniProt P49684).
T2 sequence (P49684 whole entry): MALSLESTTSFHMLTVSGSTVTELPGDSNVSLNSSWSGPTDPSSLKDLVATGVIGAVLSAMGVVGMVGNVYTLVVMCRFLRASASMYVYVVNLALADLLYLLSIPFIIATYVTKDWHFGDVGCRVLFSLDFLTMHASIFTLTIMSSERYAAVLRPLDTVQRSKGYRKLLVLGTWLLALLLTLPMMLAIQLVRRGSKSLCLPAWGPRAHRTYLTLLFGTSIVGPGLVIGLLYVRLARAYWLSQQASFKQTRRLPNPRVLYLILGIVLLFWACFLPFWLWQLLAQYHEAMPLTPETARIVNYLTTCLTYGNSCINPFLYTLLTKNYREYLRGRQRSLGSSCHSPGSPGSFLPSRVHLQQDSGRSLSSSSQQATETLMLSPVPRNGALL
Description: Displacement of [125I]human urotensin 2 from rat urotensin 2 receptor.

In series [5] the test system is Aorta. Description: Blockade of human urotensin 2-induced contraction in rat isolated aorta. In kind it is functional.
A short description of series [6]: Blockade of human urotensin 2-induced contraction in cat isolated femoral artery. Type of series: functional, Felis catus.
The target in series [7] is T1, Urotensin-2 receptor. As to the kind of experiment: Antagonist activity at human urotensin 2 receptor. Type of series: functional. The conditions noted are these: read-out: pA2 (converted).
For series [8], the target named is Cytochrome P450 2D6 (Homo sapiens, UniProt P10635). Description: Inhibition of CYP2D6. In kind it is ADME.
Cytochrome P450 2D6, sequence (P10635 whole entry): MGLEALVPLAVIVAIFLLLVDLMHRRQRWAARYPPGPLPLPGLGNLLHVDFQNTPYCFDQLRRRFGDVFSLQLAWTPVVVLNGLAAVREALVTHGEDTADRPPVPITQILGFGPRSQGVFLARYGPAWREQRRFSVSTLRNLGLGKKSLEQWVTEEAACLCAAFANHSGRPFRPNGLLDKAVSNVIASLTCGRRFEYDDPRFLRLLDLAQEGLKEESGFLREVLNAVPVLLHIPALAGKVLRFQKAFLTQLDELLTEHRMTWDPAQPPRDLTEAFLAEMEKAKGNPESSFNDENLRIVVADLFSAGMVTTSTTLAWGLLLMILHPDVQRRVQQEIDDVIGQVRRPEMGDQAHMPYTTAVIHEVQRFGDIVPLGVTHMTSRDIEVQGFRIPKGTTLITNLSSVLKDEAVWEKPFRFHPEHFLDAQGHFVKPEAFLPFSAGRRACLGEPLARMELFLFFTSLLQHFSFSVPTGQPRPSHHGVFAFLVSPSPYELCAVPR
Series [9] has as its target Cytochrome P450 3A4 (Homo sapiens, UniProt P08684). As to the kind of experiment: Inhibition of CYP3A4. In kind it is ADME.
Series [10] is described as follows: Clearance in rat at 1.2 mg/kg, iv and 2.2 mg/kg, po. The conditions noted are these: in vivo. In kind it is ADME, organism-based.
Series [11] in a line: Bioavailability in rat at 2.2 mg/kg, po. In kind it is ADME, organism-based. Particulars: in vivo.
Series [12] in a line: Half life in rat at 1.2 mg/kg, iv and 2.2 mg/kg, po. Type of series: ADME, organism-based. Particulars: in vivo.
The nature of series [13]: Volume of distribution at steady state in rat at 1.2 mg/kg, iv and 2.2 mg/kg, po. Type of series: ADME, organism-based. The conditions noted are these: in vivo, read-out: Vdss.

Cytochrome P450 3A4, sequence (P08684 whole entry): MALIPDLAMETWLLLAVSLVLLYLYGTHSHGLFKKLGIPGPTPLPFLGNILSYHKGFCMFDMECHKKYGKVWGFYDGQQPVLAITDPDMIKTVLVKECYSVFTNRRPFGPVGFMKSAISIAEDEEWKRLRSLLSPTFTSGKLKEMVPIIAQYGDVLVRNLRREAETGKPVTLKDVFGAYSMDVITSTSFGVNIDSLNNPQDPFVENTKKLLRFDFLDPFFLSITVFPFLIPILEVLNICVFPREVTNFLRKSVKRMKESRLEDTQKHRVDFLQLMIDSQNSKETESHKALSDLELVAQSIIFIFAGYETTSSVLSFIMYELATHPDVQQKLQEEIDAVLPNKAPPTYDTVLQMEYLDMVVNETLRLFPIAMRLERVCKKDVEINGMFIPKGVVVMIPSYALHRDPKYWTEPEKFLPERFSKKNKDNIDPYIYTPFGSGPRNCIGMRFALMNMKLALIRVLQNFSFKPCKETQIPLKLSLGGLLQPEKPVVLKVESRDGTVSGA

For `CN(CC(=O)N1CCC[C@H](c2ccccc2)[C@@H]1CN1CCCC1)Cc1ccc(Cl)c(Cl)c1`, the Ki in series [1] was 3980 nM.

In the case of `COc1cccc(N(C)CC(=O)N2CCC[C@H](c3ccccc3)[C@@H]2CN2CCCC2)c1`, in series [1], the inhibition constant (Ki) was 794 nM.

Turning to `Cc1cccc(N(C)CC(=O)N2CCC[C@H](c3ccccc3)[C@@H]2CN2CCCC2)c1`, the inhibition constant (Ki) in series [1] is 398 nM.

Regarding `CN(CC(=O)N1CCC[C@@H](c2ccccc2)[C@H]1CN1CCCC1)c1ccc(Cl)c(Cl)c1`, the inhibition constant Ki in series [1] is 1580 nM.

`CN(CC(=O)N1CCCCC1CN1CCCC1)c1ccc(Cl)c(Cl)c1` (stereo unspecified): the half-maximal inhibitory concentration (IC50) in series [2] is 631 nM. Besides, in [1], the Ki was 398 nM.

For the molecule `O=C(Cc1csc2ccc(Cl)cc12)N1CCCCC1CN1CCCC1` (stereo unspecified), in [1], the inhibition constant Ki was 501 nM.

Turning to `O=C(Cc1csc2ccc(Cl)cc12)N1CCCCC1CN1CCCCC1` (stereo unspecified), the Ki in series [1] was 7940 nM.

For the molecule `O=C(Cc1c[nH]c2ccc(Br)cc12)N1CCC[C@H](c2ccccc2)[C@@H]1CN1CCCC1`, in series [1], the inhibition constant (Ki) was 631 nM.

For the molecule `Cc1ccc2scc(CC(=O)N3CCC[C@H](c4ccccc4)[C@@H]3CN3CCCC3)c2c1`, the Ki in [1] was 15.8 nM.

For the molecule `CC(=O)N(CC(=O)N1CCC[C@H](c2ccccc2)[C@@H]1CN1CCCC1)c1ccc(Cl)c(Cl)c1`, the Ki in series [1] is 1580 nM.

As for `CCN(CC(=O)N1CCC[C@H](c2ccccc2)[C@@H]1CN1CCCC1)c1ccc(Cl)c(Cl)c1`, the Ki in series [1] was 31.6 nM.

On to `CN(CC(=O)N1CCC[C@H](c2ccccc2)[C@@H]1CN1CCCC1)c1cccc(Cl)c1`, for which the Ki in series [1] is 79.4 nM.

For `CS(=O)(=O)N(CC(=O)N1CCC[C@H](c2ccccc2)[C@@H]1CN1CCCC1)c1ccc(Cl)c(Cl)c1`, the inhibition constant (Ki) in series [1] was 79.4 nM.

Regarding `O=C(CN(CC1CC1)c1ccc(Cl)c(Cl)c1)N1CCC[C@H](c2ccccc2)[C@@H]1CN1CCCC1`, the Ki in [1] is 50.1 nM.

`Cc1ccc(N(C)CC(=O)N2CCC[C@H](c3ccccc3)[C@@H]2CN2CCCC2)cc1C`: the inhibition constant (Ki) in series [1] is 200 nM.

Consider `CN(CC(=O)N1CCC[C@H](c2ccccc2)[C@@H]1CN1CCCC1)c1cccc(C(F)(F)F)c1`, for which the Ki in series [1] was 100 nM.

For the molecule `CN(CC(=O)N1CCC[C@H](c2ccccc2)[C@@H]1CN1CCCC1)c1ccc(Cl)cc1`, in series [1], the Ki is 501 nM.

As to `O=C(Cc1ccc2ccccc2c1)N1CCC[C@H](c2ccccc2)[C@@H]1CN1CCCC1`, the inhibition constant (Ki) in series [1] was 7940 nM.

With `O=C(CNc1ccc(Cl)c(Cl)c1)N1CCC[C@H](c2ccccc2)[C@@H]1CN1CCCC1`, the Ki in series [1] was 63.1 nM.

In the case of `O=C(Cc1csc2ccc(Cl)cc12)N1CCC[C@@H](c2ccccc2)[C@H]1CN1CCCC1`, the inhibition constant (Ki) in series [1] was 1000 nM.

`O=C(Cc1csc2ccc(Cl)cc12)N1CCOCC1CN1CCCC1` (stereo unspecified): the Ki in [1] was 794 nM.

For `O=C(Cc1csc2ccccc12)N1CCC[C@H](c2ccccc2)[C@@H]1CN1CCCC1`, in [1], the inhibitory constant (Ki) is 251 nM.

For `O=C(Cc1csc2ccc(Cl)cc12)N1CCCCCC1CN1CCCC1` (stereo unspecified), the Ki in series [1] is 2000 nM.

On to `CN1CCN(CC2CCCCN2C(=O)Cc2csc3ccc(Cl)cc23)CC1` (stereo unspecified), for which the Ki in series [1] was over 7940 nM.

`O=C(c1cccc2ccccc12)N1CCC[C@H](c2ccccc2)[C@@H]1CN1CCCC1`: in series [1], the Ki was over 7940 nM.

Take `CCN(CC)CC1CCCCN1C(=O)Cc1csc2ccc(Cl)cc12` (stereo unspecified): the Ki in series [1] was over 7940 nM.

Consider `O=C(Cc1ccsc1)N1CCC[C@H](c2ccccc2)[C@@H]1CN1CCCC1`, for which, in [1], the Ki is over 7940 nM.

In the case of `O=C(Cc1cccc2ccccc12)N1CCC[C@H](c2ccccc2)[C@@H]1CN1CCCC1`, in [1], the inhibitory constant (Ki) was 79.4 nM.

On to `O=C(Cc1ccc(Cl)c(Cl)c1)N1CCC[C@H](c2ccccc2)[C@@H]1CN1CCCC1`, for which, in series [1], the Ki is 2510 nM.

Turning to `O=C(Cc1csc2ccc(Cl)cc12)N1CCCC1CN1CCCC1` (stereo unspecified), the Ki in series [1] was over 7940 nM.

`O=C(Cc1csc2ccc(Br)cc12)N1CCC[C@H](c2ccccc2)[C@@H]1CN1CCCC1`: in series [1], the Ki was 7.94 nM.

Consider `O=C(Cc1csc2ccc(Cl)cc12)N1CCC[C@H](c2ccccc2)[C@@H]1CN1CCCC1`, for which the Ki in series [1] was 3.98 nM; in [4], 10 nM. Besides, in [3], the “Log Ki” value is recorded as -8. Moreover, the pKb in series [5] was found to be 7.7; in [6], 7.2. In addition, in series [7], the Kb is 10 nM.

For the molecule `CN(CC(=O)N1CCC[C@H](c2ccccc2)[C@@H]1CN1CCCC1)c1ccccc1Cl`, in [1], the Ki was 794 nM.

For `Cc1ccc2scc(CCC(=O)N3CCC[C@H](c4ccccc4)[C@@H]3CN3CCCC3)c2c1`, the Ki in series [1] was 3160 nM.

As to `CN(CC(=O)N1CCC[C@H](c2ccccc2)[C@@H]1CN1CCCC1)c1ccc2ccccc2c1`, the inhibition constant Ki in series [1] is 158 nM.

On to `CN(CC(=O)N1CCC[C@H](c2ccccc2)[C@@H]1CN1CCCC1)c1ccccc1`, for which, in series [1], the Ki is 3160 nM.

Turning to `O=C(Cc1csc2ccc(Cl)cc12)N1CCCCC1CN1CCOCC1` (stereo unspecified), in series [1], the inhibition constant (Ki) is 1260 nM.

Regarding `CCCO[C@H]1CCCN(C(=O)Cc2csc3ccc(Cl)cc23)[C@H]1CN1CCCC1` (relative stereo), the inhibition constant (Ki) in [1] is 31.6 nM.

Take `O=C(Cc1csc2ccc(Cl)cc12)N1C[C@H](c2ccccc2)CC[C@H]1CN1CCCC1` (relative stereo): the Ki in series [1] is 31.6 nM.

Turning to `O=C(Cc1csc2ccc(Cl)cc12)N1CC[C@H](c2ccccc2)C[C@@H]1CN1CCCC1` (relative stereo), in [1], the Ki is 200 nM.

Regarding `O=C(Cc1csc2ccc(Cl)cc12)N1CCC[C@H](C2CCCCC2)[C@@H]1CN1CCCC1` (relative stereo), the Ki in [1] is 25.1 nM.

`C[C@H]1CCCN(C(=O)Cc2csc3ccc(Cl)cc23)[C@H]1CN1CCCC1` (relative stereo): the inhibitory constant (Ki) in series [1] was 200 nM.

Turning to `O=C(Cc1csc2ccc(Cl)cc12)N1CCC[C@H](c2ccccc2)[C@@H]1CN1CCCC1` (relative stereo), the Ki in series [1] is 7.94 nM.

On to `CN(CC(=O)N1CCC[C@H](c2ccccc2)[C@@H]1CN1CCCC1)c1ccc(Cl)c(Cl)c1` (stereo in doubt; 10b), for which the inhibition constant (Ki) in [1] is 15.8 nM. In addition, the IC50 was found to be 800 nM in series [8] and 1400 nM in series [9]. The molecule also came in with a clearance in series [10] of 97 mL/min/kg. Moreover, in series [11], the bioavailability came to 0%. The molecule further showed a half-life in [12] of 3.8 h. Further, the Vd in series [13] came to 23 L/kg.

As to `CN(CC(=O)N1CCC[C@H](c2ccccc2)[C@@H]1CN1CCCC1)c1ccc(Cl)c(Cl)c1` (stereo in doubt; 11a), the inhibition constant (Ki) in series [1] and in series [4] was 6.31 nM each time. The “Log Ki” value in series [3] was -8.1. Moreover, the negative-log Kb (pKb) worked out at 7.9 in series [5] and 7.2 in [6].
